Test results taken from ChEMBL document CHEMBL1149733, “Antitumor agents, 130, Novel 4 beta-arylamino derivatives of 3',4'-didemethoxy-3',4'-dioxo-4-deoxypodophyllotoxin as potent inhibitors of human DNA topoisomerase II” (1992).

How the values were obtained:
[1] = target: DNA topoisomerase 2-alpha (Homo sapiens) (UniProt P11388); assay: Inhibition of strand rejoining activity of human DNA topoisomerase 2 assessed as protein-DNA complex formation at 10 uM by cell-based assay; set-up: scale not given: the % may be the effect or the level left
DNA topoisomerase 2-alpha (Homo sapiens), sequence (P11388 whole entry): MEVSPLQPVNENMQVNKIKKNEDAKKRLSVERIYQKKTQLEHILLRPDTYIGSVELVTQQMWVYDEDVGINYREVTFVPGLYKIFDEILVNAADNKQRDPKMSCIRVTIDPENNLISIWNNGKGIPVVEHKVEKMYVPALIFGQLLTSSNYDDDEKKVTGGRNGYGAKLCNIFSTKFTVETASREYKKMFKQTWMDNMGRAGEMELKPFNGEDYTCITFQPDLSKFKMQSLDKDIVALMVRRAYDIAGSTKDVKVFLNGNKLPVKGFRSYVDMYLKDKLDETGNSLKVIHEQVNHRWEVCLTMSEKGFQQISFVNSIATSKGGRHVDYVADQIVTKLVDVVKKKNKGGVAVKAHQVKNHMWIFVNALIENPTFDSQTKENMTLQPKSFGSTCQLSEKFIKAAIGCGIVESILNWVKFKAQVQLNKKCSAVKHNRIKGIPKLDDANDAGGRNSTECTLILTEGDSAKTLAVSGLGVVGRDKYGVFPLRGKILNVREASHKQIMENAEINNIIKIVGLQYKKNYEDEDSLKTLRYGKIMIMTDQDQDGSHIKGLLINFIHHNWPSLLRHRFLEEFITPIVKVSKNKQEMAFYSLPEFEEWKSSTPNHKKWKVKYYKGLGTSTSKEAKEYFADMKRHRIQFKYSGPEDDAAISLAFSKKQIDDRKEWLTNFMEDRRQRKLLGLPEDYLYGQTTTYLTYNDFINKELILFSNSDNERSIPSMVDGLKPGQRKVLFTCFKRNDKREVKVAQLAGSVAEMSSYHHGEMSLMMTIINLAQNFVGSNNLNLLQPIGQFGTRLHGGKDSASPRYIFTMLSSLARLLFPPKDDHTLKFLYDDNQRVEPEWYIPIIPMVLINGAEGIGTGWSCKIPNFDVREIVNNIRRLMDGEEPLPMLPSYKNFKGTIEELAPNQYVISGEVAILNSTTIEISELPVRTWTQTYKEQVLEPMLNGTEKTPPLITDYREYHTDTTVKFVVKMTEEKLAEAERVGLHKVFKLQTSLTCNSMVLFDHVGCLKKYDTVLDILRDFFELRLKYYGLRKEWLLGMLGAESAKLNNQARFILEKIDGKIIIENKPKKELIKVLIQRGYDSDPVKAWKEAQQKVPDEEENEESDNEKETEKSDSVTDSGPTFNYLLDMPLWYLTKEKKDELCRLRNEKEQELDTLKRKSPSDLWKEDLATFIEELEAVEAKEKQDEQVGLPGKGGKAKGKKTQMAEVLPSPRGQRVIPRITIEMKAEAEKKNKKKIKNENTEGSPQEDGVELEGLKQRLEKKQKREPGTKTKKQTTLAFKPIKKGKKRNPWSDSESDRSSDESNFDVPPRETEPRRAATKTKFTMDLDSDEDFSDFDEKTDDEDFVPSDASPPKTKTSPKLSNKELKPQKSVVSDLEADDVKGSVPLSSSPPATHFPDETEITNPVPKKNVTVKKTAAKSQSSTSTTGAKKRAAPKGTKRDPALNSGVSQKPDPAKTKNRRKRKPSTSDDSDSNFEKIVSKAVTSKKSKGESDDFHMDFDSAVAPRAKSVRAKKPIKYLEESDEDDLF

EMT6 = assay: Ratio of cytotoxicity for normally oxygenated mouse EMT6 cells over hypoxic mouse EMT6 cells; assay type: functional
[2] = target: DNA topoisomerase 2-alpha (Homo sapiens) (UniProt P11388); assay: Inhibition of human DNA topoisomerase 2
KB = assay: Cytotoxicity against human KB cells assessed as reduction in cell number after 3 days; assay type: functional; conditions: 72 h, read-out: ID50 (the source's name)

SMILES | Activity [1] [%] | Ratio (EMT6) | ID50 [2] [µM] | IC50 (KB) [µM]
COc1cc([C@@H]2c3cc4c(cc3[C@@H](O[C@@H]3O[C@@H]5CO[C@@H](C)O[C@H]5[C@H](O)[C@H]3O)[C@H]3COC(=O)[C@H]23)OCO4)cc(OC)c1O [ETOPOSIDE] | 100 | 30 | – | –
COC(=O)c1ccc(N[C@@H]2c3cc4c(cc3[C@@H](c3cc(OC)c(O)c(OC)c3)[C@H]3C(=O)OC[C@@H]32)OCO4)cc1O | 129 | – | 50 | 5.8
CCOC(=O)c1ccc(N[C@@H]2c3cc4c(cc3[C@@H](c3cc(OC)c(O)c(OC)c3)[C@H]3C(=O)OC[C@@H]32)OCO4)cc1 | 207 | – | 5 | 0.84
COc1cc([C@@H]2c3cc4c(cc3[C@@H](Nc3ccc(F)cc3)[C@H]3COC(=O)[C@H]23)OCO4)cc(OC)c1O | 2.13 | – | 5 | 0.2
